Test results from patent US20240360194A1, “New Peptides as Potent and Selective GIP Receptor Agonists” (Sanofi, priority 2021, published 2024).
pEC50, pIC50: −log10 of the molar value. Converted amounts (≈) assume the structure as drawn. Where two headings read alike, the source gives them in different places.

Columns and labels:
[1] = target: T1, human GLP-1 receptor (hGLP-1R) (Homo sapiens, UniProt P43220); experiment: Binding assay, displacement of [125I]GLP-1 from HEK-293 membranes over-expressing GLP-1R (SPA); details: [125I]GLP-1 displacement
Protocol: (1) Preparation of Membranes from HEK-293 Cells Over-Expressing GIPR or GLP-1R
HEK-293 cells recombinantly over-expressing GIPR or GLP-1R were grown to 50% confluency, washed with warm 1×PBS (Gibco) and detached in HEPES/EDTA-buffer (100 mM HEPES pH 7.5, 5 mM EDTA). Cells were harvested by centrifugation at 4° C. and 3000×g and the pellets were stored at −80° C. until further processing.
After thawing on ice, pellets were resuspended in HEPES/EDTA-buffer and homogenized on ice for 1 min using Ultra-Turray T25. After subsequent sonification the cell debris was removed by centrifugation at 1000×g and 4° C. Supernatants were then ultra-centrifuged at 100000×g and 4° C. under vacuum for 30 min. Pellets were resuspended in HEPES/EDTA/NaCl-buffer (20 mM HEPES, 1 mM EDTA, 150 mM NaCl; add 1 Complete Mini Protease inhibitor cocktail to 10 ml buffer) and protein content was determined via BCA-Protein assay.
(2) Measurement of Binding Activity of Test Compounds to Human GIPR or GLP-1R

[2] = target: T2, human GIP receptor (hGIPR) (Homo sapiens, UniProt P48546); experiment: In vitro cellular cAMP assay for GIP receptor efficacy (HEK-293 cell line over-expressing receptor); format: cell-based; details: EC50 hGIPR 0.1% BSA, HEK-293, 0.1% BSA
T2 sequence (P48546 22-466): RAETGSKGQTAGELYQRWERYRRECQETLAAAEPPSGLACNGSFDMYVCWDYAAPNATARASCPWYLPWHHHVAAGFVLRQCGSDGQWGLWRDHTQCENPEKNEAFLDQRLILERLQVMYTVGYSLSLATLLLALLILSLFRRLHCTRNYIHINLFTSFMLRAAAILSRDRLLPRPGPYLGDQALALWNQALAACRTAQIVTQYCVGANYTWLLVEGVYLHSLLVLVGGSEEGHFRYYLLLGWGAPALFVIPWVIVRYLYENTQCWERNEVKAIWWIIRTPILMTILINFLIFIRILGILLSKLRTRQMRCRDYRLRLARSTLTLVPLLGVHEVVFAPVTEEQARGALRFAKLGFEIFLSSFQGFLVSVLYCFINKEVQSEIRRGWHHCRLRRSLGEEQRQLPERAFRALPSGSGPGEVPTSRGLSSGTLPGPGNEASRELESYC

[3] = target: T2, human GIP receptor (hGIPR); experiment: Binding assay, displacement of [125I]GIP from HEK-293 membranes over-expressing GIPR (SPA); details: [125I]GIP displacement
Outline: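 Membranes from HEK-293 cells over-expressing human GIPR or GLP-1R, isolated by homogenising, sonicating and ultracentrifuging at 100000×g into HEPES/EDTA/NaCl buffer with protease inhibitors, were used for binding.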

[4] = target: T1, human GLP-1 receptor (hGLP-1R); experiment: In vitro cellular cAMP assay for GLP-1 receptor efficacy (HEK-293 cell line over-expressing receptor); format: cell-based; details: HEK-293, 0.1% BSA
[5] = target: T3, human GIP receptor (Homo sapiens, UniProt P48546); experiment: In vitro cellular cAMP assay for GIP receptor efficacy (human adipocytes); format: cell-based; details: for pEC50: read-out: hGIPR EC50; for Emax: read-out: hGIPR Emax
T3 construct: human adipocytes endogenously expressing the human GIP receptor; host or cells: human preadipocytes (Lonza) differentiated to adipocytes
T3 sequence (P48546 22-466): T2 sequence (P48546 22-466)
Outline: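 cAMP is read by HTRF (665/620 nm ratio, 1 h after reagents in lysis buffer) following 30 min compound exposure at room temperature. Cells are human preadipocyte-derived adipocytes, differentiated 6 days with insulin, dexamethasone, IBMX (200 μM), PPARγ agonist and L-thyroxine, seeded 5000 per well.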

[6] = Solubility assessment (UHPLC-UV of supernatant, target 10 mg/ml); format: physicochemical
Outline: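 Peptides at 10 mg/ml (purity-corrected) in 100 mM phosphate pH 7.4, optionally with 2.7 mg/ml m-cresol; gentle agitation 1 h, then 5° C. overnight (24 h). Supernatant after 15 min centrifugation at 2500 RCF quantified by UHPLC-UV, with sequence-based extinction coefficients.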

[7] = 100 mM phosphate buffer pH 7.4 (solubility buffer system A), pH 7.4, Solubility buffer system A: 100 mM phosphate buffer pH 7.4, read-out: Soluble amount
[8] = pH 7.4, Solubility buffer system C: 100 mM phosphate buffer pH 7.4, 2.7 mg/ml m-cresol, read-out: Soluble amount

T1 sequence (P43220 24-463): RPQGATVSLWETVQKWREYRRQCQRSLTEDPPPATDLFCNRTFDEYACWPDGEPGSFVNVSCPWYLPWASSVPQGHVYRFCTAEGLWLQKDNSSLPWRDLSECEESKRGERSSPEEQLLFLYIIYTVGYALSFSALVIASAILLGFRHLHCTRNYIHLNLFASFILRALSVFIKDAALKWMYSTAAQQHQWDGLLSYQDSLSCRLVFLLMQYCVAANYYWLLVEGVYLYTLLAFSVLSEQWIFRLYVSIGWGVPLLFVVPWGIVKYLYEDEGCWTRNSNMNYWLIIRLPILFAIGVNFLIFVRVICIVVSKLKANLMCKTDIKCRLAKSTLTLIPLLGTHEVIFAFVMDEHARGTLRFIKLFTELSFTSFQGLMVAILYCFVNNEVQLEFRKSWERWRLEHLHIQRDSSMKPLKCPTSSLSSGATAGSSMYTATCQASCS

Structure (SMILES)	pIC50 [1]	pEC50 [2]	pIC50 [3]	pEC50 [4]	pEC50 [5]	Emax [5]	solubility at 24 h ([6]; pH 7.4, Soluble amount)	solubility at 24 h [6, 7]	solubility at 24 h [6, 8]
CC[C@H](C)[C@H](NC(=O)[C@H](Cc1ccccc1)NC(=O)[C@H](CCC(=O)O)NC(=O)C(C)(C)NC(=O)[C@H](CCC(N)=O)NC(=O)[C@H](CCCCNC(=O)COCCOCCNC(=O)COCCOCCNC(=O)CC[C@H](NC(=O)CCCCCCCCCCCCCCCCC(=O)O)C(=O)O)NC(=O)[C@H](CCC(N)=O)NC(=O)[C@H](CCC(=O)O)NC(=O)[C@H](CCC(=O)O)NC(=O)[C@H](CC(C)C)NC(=O)C(C)(C)NC(=O)[C@@H](NC(=O)[C@H](CO)NC(=O)[C@H](CC(C)C)NC(=O)[C@H](CC(=O)O)NC(=O)[C@H](CO)NC(=O)[C@@H](NC(=O)[C@H](Cc1ccccc1)NC(=O)[C@@H](NC(=O)CNC(=O)[C@H](CCC(=O)O)NC(=O)C(C)(C)NC(=O)[C@@H](N)Cc1ccc(O)cc1)[C@@H](C)O)[C@@H](C)CC)[C@@H](C)CC)C(=O)N[C@@H](CCC(=O)O)C(=O)N[C@@H](Cc1c[nH]c2ccccc12)C(=O)N[C@@H](CC(C)C)C(=O)N[C@@H](CC(C)C)C(=O)N[C@@H](C)C(=O)N[C@@H](CCC(N)=O)C(=O)NCC(=O)N1CCC[C@H]1C(=O)N[C@@H](CO)C(=O)N[C@@H](CO)C(=O)NCC(=O)N[C@@H](CCC(=O)O)C(=O)N1CCC[C@H]1C(=O)N1CCC[C@H]1C(=O)N1CCC[C@H]1C(=O)N[C@@H](CO)C(N)=O [SEQ ID NO: 38, H2N-Y-Aib-E-G-T-F-I-S-D-L-S-I-Aib-L-E-E-Q-K[{AEEA}2-gGlu-C18OH]-Q-Aib-E-F-I-E-W-L-L-A-Q-G-P-S-S-G-E-P-P-P-S-NH2]	7.14	10.27	9.70	< 8.00	9.40	92%	> 9200 µg/mL	–	–
CC[C@H](C)[C@H](NC(=O)[C@H](CCCNC(=N)N)NC(=O)[C@H](CC(=O)O)NC(=O)[C@H](CCCCNC(=O)CN(C)C(=O)CN(C)C(=O)CN(C)C(=O)CC[C@H](NC(=O)CCCCCCCCCCCCCCCCC(=O)O)C(=O)O)NC(=O)C(C)(C)NC(=O)[C@@H](NC(=O)[C@H](CO)NC(=O)[C@H](CC(C)C)NC(=O)[C@H](CC(=O)O)NC(=O)[C@H](CO)NC(=O)[C@@H](NC(=O)[C@H](Cc1ccccc1)NC(=O)[C@@H](NC(=O)CNC(=O)[C@H](CCC(=O)O)NC(=O)C(C)(C)NC(=O)[C@@H](N)Cc1ccc(O)cc1)[C@@H](C)O)[C@@H](C)CC)[C@@H](C)CC)C(=O)N[C@@H](Cc1c[nH]cn1)C(=O)N[C@@H](CCC(N)=O)C(=O)NC(C)(C)C(=O)N[C@@H](CCC(=O)O)C(=O)N[C@@H](Cc1ccccc1)C(=O)N[C@H](C(=O)N[C@@H](CCC(=O)O)C(=O)N[C@@H](Cc1c[nH]c2ccccc12)C(=O)N[C@@H](CC(C)C)C(=O)N[C@@H](CC(C)C)C(=O)N[C@@H](C)C(=O)N[C@@H](CCC(N)=O)C(=O)N[C@@H](CCCNC(=N)N)C(=O)NCC(N)=O)[C@@H](C)CC [SEQ ID NO: 8, H2N-Y-Aib-E-G-T-F-I-S-D-L-S-I-Aib-K[{N-MeGly}3-gGlu-C18OH]-D-R-I-H-Q-Aib-E-F-I-E-W-L-L-A-Q-R-G-NH2]	6.86	11.13	10.00	< 8.00	9.15	128%	–	> 10700 µg/mL	1800 µg/mL (≈ 423 µM)
CC[C@H](C)[C@H](NC(=O)[C@H](Cc1ccccc1)NC(=O)[C@H](CCC(=O)O)NC(=O)[C@H](CCC(=O)O)NC(=O)[C@H](CCC(N)=O)NC(=O)[C@H](Cc1c[nH]cn1)NC(=O)[C@@H](NC(=O)[C@H](CCCNC(=N)N)NC(=O)[C@H](CC(=O)O)NC(=O)[C@H](CCCCNC(=O)COCCOCCNC(=O)COCCOCCNC(=O)CC[C@H](NC(=O)CCCCCCCCCCCCCCCCCCC(=O)O)C(=O)O)NC(=O)C(C)(C)NC(=O)[C@@H](NC(=O)[C@H](CO)NC(=O)[C@H](CC(C)C)NC(=O)[C@H](CC(=O)O)NC(=O)[C@H](CO)NC(=O)[C@@H](NC(=O)[C@H](Cc1ccccc1)NC(=O)[C@@H](NC(=O)CNC(=O)[C@H](CCC(=O)O)NC(=O)C(C)(C)NC(=O)[C@@H](N)Cc1ccc(O)cc1)[C@@H](C)O)[C@@H](C)CC)[C@@H](C)CC)[C@@H](C)CC)C(=O)N[C@@H](CCC(=O)O)C(=O)N[C@@H](Cc1c[nH]c2ccccc12)C(=O)N[C@@H](CC(C)C)C(=O)N[C@@H](CC(C)C)C(=O)N[C@@H](C)C(=O)N[C@@H](CCC(N)=O)C(=O)N[C@@H](CCCNC(=N)N)C(=O)NCC(N)=O [SEQ ID NO: 5, H2N-Y-Aib-E-G-T-F-I-S-D-L-S-I-Aib-K[{AEEA}2-gGlu-C20OH]-D-R-I-H-Q-E-E-F-I-E-W-L-L-A-Q-R-G-NH2]	6.63	10.29	9.15	< 8.00	8.68	114%	–	5200 µg/mL (≈ 1180 µM)	–
CC[C@H](C)[C@H](NC(=O)[C@H](CCCNC(=N)N)NC(=O)[C@H](CC(=O)O)NC(=O)[C@H](CCCCNC(=O)CNC(=O)CNC(=O)CNC(=O)CC[C@H](NC(=O)CCCCCCCCCCCCCCCCC(=O)O)C(=O)O)NC(=O)C(C)(C)NC(=O)[C@@H](NC(=O)[C@H](CO)NC(=O)[C@H](CC(C)C)NC(=O)[C@H](CC(=O)O)NC(=O)[C@H](CO)NC(=O)[C@@H](NC(=O)[C@H](Cc1ccccc1)NC(=O)[C@@H](NC(=O)CNC(=O)[C@H](CCC(=O)O)NC(=O)C(C)(C)NC(=O)[C@@H](N)Cc1ccc(O)cc1)[C@@H](C)O)[C@@H](C)CC)[C@@H](C)CC)C(=O)N[C@@H](Cc1c[nH]cn1)C(=O)N[C@@H](CCC(N)=O)C(=O)NC(C)(C)C(=O)N[C@@H](CCC(=O)O)C(=O)N[C@@H](Cc1ccccc1)C(=O)N[C@H](C(=O)N[C@@H](CCC(=O)O)C(=O)N[C@@H](Cc1c[nH]c2ccccc12)C(=O)N[C@@H](CC(C)C)C(=O)N[C@@H](CC(C)C)C(=O)N[C@@H](C)C(=O)N[C@@H](CCC(N)=O)C(=O)N[C@@H](CCCNC(=N)N)C(=O)NCC(N)=O)[C@@H](C)CC [SEQ ID NO: 7, H2N-Y-Aib-E-G-T-F-I-S-D-L-S-I-Aib-K[{Gly}3-gGlu-C18OH]-D-R-I-H-Q-Aib-E-F-I-E-W-L-L-A-Q-R-G-NH2]	6.97	11.02	10.00	< 8.00	9.40	121%	–	9100 µg/mL (≈ 2160 µM)	4000 µg/mL (≈ 949 µM)
CC[C@H](C)[C@H](NC(=O)[C@H](Cc1ccccc1)NC(=O)[C@H](CCC(=O)O)NC(=O)[C@H](CCC(=O)O)NC(=O)[C@H](CCC(N)=O)NC(=O)[C@H](Cc1c[nH]cn1)NC(=O)[C@@H](NC(=O)[C@H](CCCNC(=N)N)NC(=O)[C@H](CC(=O)O)NC(=O)[C@H](CCCCNC(=O)COCCOCCNC(=O)COCCOCCNC(=O)CC[C@H](NC(=O)CCCCCCCCCCCCCCCCC(=O)O)C(=O)O)NC(=O)C(C)(C)NC(=O)[C@@H](NC(=O)[C@H](CO)NC(=O)[C@H](CC(C)C)NC(=O)[C@H](CC(=O)O)NC(=O)[C@H](CO)NC(=O)[C@@H](NC(=O)[C@H](Cc1ccccc1)NC(=O)[C@@H](NC(=O)CNC(=O)[C@H](CCC(=O)O)NC(=O)C(C)(C)NC(=O)[C@@H](N)Cc1ccc(O)cc1)[C@@H](C)O)[C@@H](C)CC)[C@@H](C)CC)[C@@H](C)CC)C(=O)N[C@@H](CCC(=O)O)C(=O)N[C@@H](Cc1c[nH]c2ccccc12)C(=O)N[C@@H](CC(C)C)C(=O)N[C@@H](CC(C)C)C(=O)N[C@@H](C)C(=O)N[C@@H](CCC(N)=O)C(=O)N[C@@H](CCCNC(=N)N)C(=O)NCC(=O)O [SEQ ID NO: 13, H2N-Y-Aib-E-G-T-F-I-S-D-L-S-I-Aib-K[{AEEA}2-gGlu-C18OH]-D-R-I-H-Q-E-E-F-I-E-W-L-L-A-Q-R-G-OH]	6.94	10.55	9.05	–	–	–	–	–	–
